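Each compound was tested at five concentrations against cells in 96-well plates for 48 hours. TGI marks complete inhibition of growth.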
Tests used:
Assay in all cases: DTP human tumour cell line panel, 48 h
[1] = test system: MOLT-4 leukemia
[2] = test system: NCI-H226 lung
[3] = test system: OVCAR-8 ovarian
[4] = test system: HCT-116 colon
[5] = test system: SF-539 CNS
[6] = test system: HS 578T breast
[7] = test system: T-47D breast
[8] = test system: DU-145 prostate
[9] = test system: OVCAR-3 ovarian
[10] = test system: BT-549 breast

| SMILES | TGI [1] [µM] | TGI [2] [µM] | TGI [3] [µM] | TGI [4] [µM] | TGI [5] [µM] | TGI [6] [µM] | TGI [7] [µM] | TGI [8] [µM] | TGI [9] [µM] | TGI [10] [µM] |
| --- | --- | --- | --- | --- | --- | --- | --- | --- | --- | --- |
| N#Cc1[nH]c(=O)n(-c2ccccc2)c1N | > 10 | > 10 | > 10 | > 10 | > 10 | > 10 | > 10 | > 10 | > 10 | – |
| Cn1c(O)c(C(=O)NC2CCCCC2)c(=O)n(C)c1=S | 12.6 | 30.5 | 17.9 | – | 21.4 | – | – | – | 26.6 | – |
| O=C1NC(=S)NC(=O)C1C(c1ccc(O)cc1)C1C(=O)NC(=S)NC1=O | > 100 | > 100 | > 100 | > 100 | – | – | > 100 | > 100 | > 100 | > 100 |
| O=C(Nc1cc(Cl)c(Cl)cc1Cl)C(=O)C1C(=O)NC(=S)NC1=O | > 100 | > 100 | > 100 | > 100 | > 100 | – | – | – | – | – |
| CCCCC1Cc2ccccc2-c2nc3ccccc3n21 (stereo unspecified) | 32.9 | 39.5 | 34.9 | 26.6 | 41.4 | 35.4 | 29.4 | 38.1 | 30.3 | – |
| CC(C)=CCC(O)[C@](C)(O)[C@H]1[C@H](O)C[C@@]2(C)[C@@H]3CCc4cc(O)c(OC5OC(CO)C(O)C(O)C5O)cc4C3(C)C(=O)C[C@]12C (stereo partly specified) | > 100 | > 100 | > 100 | > 100 | > 100 | – | > 100 | > 100 | > 100 | > 100 |
| CC1=CCC(O)C=CC(C)C(O)C(C)C=C(C)C(=O)c2c(O)c(C)cc3c2C(=O)C(N)=C(NC(=O)/C=C\C=C/C=CC(C)C(O)CC1=O)C3=O (stereo unspecified) | > 100 | > 100 | > 100 | 54.4 | > 100 | – | – | – | > 100 | – |
| O=[N+]([O-])c1ccc(S(=O)(=O)n2c3ccc(Br)cc3c3nc4ccccc4nc32)cc1 | > 100 | > 100 | > 100 | > 100 | – | > 100 | > 100 | > 100 | > 100 | – |
| Cc1ccc2c(c1)CC1(Cc3ccccc3C1=O)C2=O (stereo unspecified) | > 100 | > 100 | > 100 | > 100 | > 100 | > 100 | > 100 | > 100 | > 100 | – |
| N#C/C(=C/NC(N)=S)C(N)=O | – | > 100 | > 100 | > 100 | > 100 | – | > 100 | > 100 | > 100 | > 100 |
| O=Cc1ccccc1COC(=O)c1cc(C(=O)OCc2ccccc2C=O)c(C(=O)OCc2ccccc2C=O)cc1C(=O)OCc1ccccc1C=O | > 100 | > 100 | > 100 | > 100 | > 100 | – | – | – | > 100 | – |
| Cc1cc(N(CCC#N)CCC#N)ccc1/C=C(\NC(=O)/C=C/c1ccccc1)C(N)=O | > 100 | > 100 | > 100 | > 100 | > 100 | – | – | – | > 100 | – |
| CCN(CC)C1CC(O[C@H]2C[C@](O)(C(=O)CO)Cc3c(O)c4c(c(O)c32)C(=O)c2c(OC)cccc2C4=O)OC(C)C1O (stereo partly specified) | 1.17 | 0.044 | 0.565 | 1.03 | 0.204 | – | – | – | 0.77 | – |
| Nc1nc([O-])c2c(n1)[n+](C1OC(CO)C(O)C1O)cn2CCO (stereo unspecified) | – | > 100 | > 100 | > 100 | > 100 | – | – | – | > 100 | – |
| CCO/C=N\C1=C(C#N)SC2=N/C(=C\c3ccc(OC)cc3)C(=O)N21 | > 100 | > 100 | > 100 | > 100 | > 100 | > 100 | > 100 | > 100 | – | – |
| C[Si](C)(C)OC1CC(=O)OC1n1cc(F)c(=O)[nH]c1=O (stereo unspecified) | > 100 | > 100 | > 100 | > 69 | > 100 | – | – | – | > 100 | – |
| CC(=O)OC1C(Oc2c(C)cc3c(c2O)[C@@H](C)CC[C@@H]3[C@@H](C)CCC=C(C)C)OCC(O)C1O (stereo partly specified) | 49.7 | 40.6 | 47.4 | 32.2 | 34.7 | 47.4 | 43.5 | 29.8 | 29.8 | – |
| Cc1ccc2c3c1O[C@H]1c4[nH]c5ccccc5c4C[C@@]4(O)[C@@H](C2)N(CC2CC2)CC[C@]314 | 32.9 | 30.5 | 34.3 | 27.9 | 31.6 | – | 36.6 | 30.5 | 27.5 | 35.7 |
| O=c1cc(-c2ccc(Oc3ccccc3)cc2)[nH]c2cc3c(cc12)OCO3 | > 100 | > 100 | > 100 | > 100 | > 100 | – | – | – | > 100 | – |

| SMILES | TGI [1] [µM] | TGI [2] [µM] | TGI [3] [µM] | TGI [4] [µM] | TGI [5] [µM] | TGI [6] [µM] | TGI [7] [µM] | TGI [8] [µM] | TGI [9] [µM] | TGI [10] [µM] |
| --- | --- | --- | --- | --- | --- | --- | --- | --- | --- | --- |
| CN=C(SC)N(C)c1nc(=[N+](C)C)ss1 | > 100 | > 100 | > 100 | > 100 | – | – | – | – | – | – |
| COc1cc(Br)cc2cc(-c3cn4c(n3)sc3ccccc34)c(=O)oc12 | 65.4 | – | > 75 | > 75 | > 75 | 39.9 | – | 48.1 | 54.5 | 70.7 |
| CC(=O)O[C@H]1C(=O)[C@@]2(C)C(C(OC(=O)c3ccccc3)[C@]3(O)CC(OC(=O)C(O)C(NC(=O)c4ccc(C(F)(F)F)cc4)c4ccccc4)C(C)=C1C3(C)C)[C@]1(OC(C)=O)CO[C@@H]1C[C@@H]2O (stereo partly specified) | 7.39 | 4.96 | 2.44 | 0.196 | 0.65 | – | – | – | 0.194 | – |
| CCOC(C)O[C@H]1C(=O)OCC1(C)C (stereo partly specified) | > 100 | > 100 | > 100 | – | > 100 | > 100 | > 100 | > 100 | > 100 | – |
| CCOC(=O)CC(C)C1(C(=O)OCC)CCCCC1=O (stereo unspecified) | > 100 | > 100 | > 100 | > 100 | > 100 | – | – | – | > 100 | – |
| Cn1c([C@H](C#N)c2ncccc2[N+](=O)[O-])nc2ccccc21 | > 100 | > 100 | > 100 | > 100 | 95.4 | 75.1 | – | – | > 100 | > 100 |
| CC1S/C(=N\N=C2/C(=O)Nc3ccc(Br)cc32)N(C2CCCCC2)C1=O (stereo unspecified) | > 100 | 18 | – | 6.61 | 16.3 | 14.4 | 19.6 | 17.6 | 10 | – |
| CN(C)CC1CCCC(CN(C)C)C1OC(=O)c1ccccc1 (stereo unspecified) | > 100 | > 100 | > 100 | > 100 | > 100 | – | – | – | > 100 | – |
| Cc1cc(NS(=O)(=O)c2ccc(Nc3c4ccccc4nc4c(C(=O)N5CCN(CCO)CC5)cccc34)cc2)no1 | > 100 | > 100 | > 100 | > 100 | > 100 | – | – | – | > 100 | – |
| c1ccc(CNc2nncc3[nH]cnc23)cc1 | > 100 | > 100 | > 100 | > 100 | > 100 | – | > 100 | – | > 100 | > 100 |
| CC(C)OC(=O)/C=C/C(=O)O/C=C/[N+](=O)[O-] | 36.5 | > 100 | > 100 | 54.3 | > 100 | – | 46.4 | > 100 | > 100 | 90.4 |
| O=C(Nc1ccccc1-c1nc2ccccc2[nH]c1=O)c1ccccc1 | > 100 | 60.1 | 66.1 | 40.7 | 49.6 | – | – | – | 44 | – |
| O=C1c2ccsc2C(=O)c2sc(CO)cc21 | > 100 | 0.643 | 0.38 | 0.279 | 0.1 | 0.191 | – | – | 2.74 | 0.0352 |
| Nc1nc(-[n+]2ccc(-c3ccncc3)cc2)nc(Cl)c1Cl | 37.2 | > 100 | – | > 100 | 68.1 | – | 45.9 | > 100 | 33.5 | > 100 |
| CC(=O)ONC(C(=O)C(C)(C)C)C(=O)C(C)(C)C | > 100 | > 100 | > 100 | > 100 | > 100 | > 100 | > 100 | > 100 | > 100 | – |
| CC(CC[C@@]1(C)C(=O)CCC2O[C@]21C)[C@H]1C[C@@H](c2ccoc2)OC1=O (stereo partly specified) | 84.7 | > 100 | – | 38.4 | 69.1 | > 100 | > 100 | > 100 | 66.1 | – |
| CCOC1=NC(O)c2cccn2-c2sccc21 (stereo unspecified) | > 100 | – | > 100 | > 100 | > 100 | – | > 100 | > 100 | > 100 | – |
| CC(C)=C[C@H]1CCC2(OCCO2)[C@]1(C)COCc1ccccc1 | 32.3 | 46.8 | > 100 | > 100 | 61.7 | – | > 100 | – | 52.7 | > 100 |
| O=c1c2ccccc2nc(Cc2nc(-c3ccc(Cl)cc3)cs2)n1-c1ccc(Cl)cc1 | > 100 | > 100 | > 100 | > 100 | – | > 100 | – | > 100 | > 100 | > 100 |

From PubChem BioAssay (NCI)
